Laboratory results published in patent publication US10143199B2, “Method of killing bedbug eggs” (Ecolab USA Inc., priority 2012, dated 2018).

How the values were obtained:
Format in all cases: in vivo
[1] = system: Bedbug eggs; experiment: Treating bedbug eggs on a substrate with test composition at pH 9 to 10 (Example 1); conditions: 1% solution, pH of 9 to 10, 100° F., 5 minutes exposure
Experimental: Bedbug eggs on a substrate were exposed to a 100° F. test composition for 5 minutes and then examined. […] Water by itself killed about 20% of the bedbug eggs. And, complete kill was accomplished by a commercial bedbug killer sold under the tradename Transport.

[2] = system: Bedbug eggs; experiment: Treating bedbug eggs with anionic compounds near neutral pH (Example 2), kill of eggs; conditions: pH 7-8, 100° F., 5 min
Experimental: (§1) Aqueous test compositions of each of several anionic compounds prepared and adjusted to near neutral pH of about 7-8. Bedbug eggs were then contacted with a 100° F. test composition for 5 min.

[3] = system: Bedbug Eggs and Nymphs; experiment: Treating bedbug eggs with anionic compounds near neutral pH (Example 2), kill of eggs and nymphs; conditions: pH 7-8, 100° F., 5 min
Experimental: as §1

Compound	kill of bedbug eggs [1]	% Kill of Bedbug Eggs ([2]; 0.1% aqueous test composition)	% Kill of Bedbug Eggs ([2]; 1% aqueous test composition)	% Kill of Bedbug Eggs and Nymphs ([3]; 0.1% aqueous test composition)	% Kill of Bedbug Eggs and Nymphs ([3]; 1% aqueous test composition)
CCCCCCCCCCCCOS(=O)(=O)[O-].[Na+] [sodium lauryl sulfate]	did not kill	70%	75%	95%	100%
CCCCCCCCS(=O)(=O)[O-].[Na+] [sodium octyl sulfonate]	–	–	90%	–	95%
sodium dodecylbenzene sulfonate	–	–	30%	–	30%
sodium lauryl ether sulfate	–	–	35%	–	35%
